Laboratory results taken from the supplement of paper PMC10307832.

Legend:
Test in all cases: relative viability (nuclei count vs DMSO), 5 days (fraction); higher = more cells survive
KIN001-266 + Alpelisib = compound: CCN1CCC(CC1)N2C=C(N=N2)CNC3=CC4=C(C(=CN=C4C(=C3)Cl)C#N)NC5=CC(=C(C=C5)F)Cl [KIN001-266] + Cc1nc(NC(=O)N2CCC[C@H]2C(N)=O)sc1-c1ccnc(C(C)(C)C(F)(F)F)c1 [Alpelisib] (partner 2 µM)
Method in brief: (§1)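 Lung cancer cell lines in 1536-well plates were dosed by pin tool the day after seeding, either with one drug alone or with a fixed anchor-drug dose plus five library-drug doses (not always all listed) in √10 steps. After 5 days, cells were fixed and their nuclei stained in one step (final 0.05% Triton X-100, 1% formaldehyde, 1 ug/ml Hoechst), then counted on 4× images. Relative viability is the nuclei count in treated wells divided by that in vehicle wells. Values are medians of duplicate plates.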

KIN001-266 + Dasatinib = compound: CCN1CCC(CC1)N2C=C(N=N2)CNC3=CC4=C(C(=CN=C4C(=C3)Cl)C#N)NC5=CC(=C(C=C5)F)Cl [KIN001-266] + Cc1nc(Nc2ncc(C(=O)Nc3c(C)cccc3Cl)s2)cc(N2CCN(CCO)CC2)n1 [Dasatinib] (partner 0.075 µM)
Method in brief: as §1

KIN001-266 + Tozasertib = compound: CCN1CCC(CC1)N2C=C(N=N2)CNC3=CC4=C(C(=CN=C4C(=C3)Cl)C#N)NC5=CC(=C(C=C5)F)Cl [KIN001-266] + Cc1cc(Nc2cc(N3CCN(C)CC3)nc(Sc3ccc(NC(=O)C4CC4)cc3)n2)n[nH]1 [Tozasertib] (partner 0.1 µM)
Method in brief: as §1

KIN001-266 + Luminespib = compound: CCN1CCC(CC1)N2C=C(N=N2)CNC3=CC4=C(C(=CN=C4C(=C3)Cl)C#N)NC5=CC(=C(C=C5)F)Cl [KIN001-266] + CCNC(=O)c1noc(-c2cc(C(C)C)c(O)cc2O)c1-c1ccc(CN2CCOCC2)cc1 [Luminespib] (partner 0.01 µM)
Method in brief: as §1

Cell Line	relative viability (KIN001-266 + Alpelisib; first compound 0.08 µM)	relative viability (KIN001-266 + Alpelisib; first compound 0.253 µM)	relative viability (KIN001-266 + Alpelisib; first compound 0.8 µM)	relative viability (KIN001-266 + Alpelisib; first compound 2.53 µM)	relative viability (KIN001-266 + Alpelisib; first compound 8 µM)	relative viability (KIN001-266 + Dasatinib; first compound 0.08 µM)	relative viability (KIN001-266 + Dasatinib; first compound 0.253 µM)	relative viability (KIN001-266 + Dasatinib; first compound 0.8 µM)	relative viability (KIN001-266 + Dasatinib; first compound 2.53 µM)	relative viability (KIN001-266 + Dasatinib; first compound 8 µM)	relative viability (KIN001-266 + Tozasertib; first compound 0.08 µM)	relative viability (KIN001-266 + Tozasertib; first compound 0.253 µM)	relative viability (KIN001-266 + Tozasertib; first compound 0.8 µM)	relative viability (KIN001-266 + Tozasertib; first compound 2.53 µM)	relative viability (KIN001-266 + Tozasertib; first compound 8 µM)	relative viability (KIN001-266 + Luminespib; first compound 0.08 µM)	relative viability (KIN001-266 + Luminespib; first compound 0.253 µM)	relative viability (KIN001-266 + Luminespib; first compound 0.8 µM)	relative viability (KIN001-266 + Luminespib; first compound 2.53 µM)	relative viability (KIN001-266 + Luminespib; first compound 8 µM)
PC-3 [JPC-3]	1.04	1.02	0.957	0.983	0.896	0.982	1.01	0.912	1.01	0.847	0.844	0.916	0.774	0.815	0.788	0.719	0.673	0.613	0.744	0.669
PC-14	0.927	0.923	0.918	0.906	0.663	0.297	0.277		0.203	0.0481	0.577	0.655		0.589	0.432	0.167	0.117	0.171	0.225	0.152
RERF-LC-KJ	0.863	0.785	0.856	0.832	0.569	0.951	0.922	0.757	0.725	0.417	0.499	0.551	0.557	0.359	0.299	1.31	1.23	1.14	1.16	0.739
SK-LU-1	1.24	1.07	1.14	0.927	0.582	0.192	0.19	0.172	0.197	0.195	0.403	0.375	0.322	0.307	0.286	0.206	0.215	0.223	0.22	0.189
SK-MES-1	0.943	0.813	0.845	0.872	0.76	0.418	0.356	0.357	0.337	0.247	0.944	0.869	0.934	0.756	0.66	0.783	0.779	1.06	0.739	0.427
SW 1573	0.789	0.775	0.709	0.764	0.693	0.515	0.735	0.483	0.503	0.437	0.219	0.186	0.162	0.184	0.224	0.268	0.272	0.195	0.238	0.211
UMC-11	0.927	0.931	1.11	0.952	0.604	0.438	0.452	0.481	0.421	0.382	0.209	0.215	0.213	0.219	0.213	0.986	0.977	1.03	0.937	0.449
